In paper PMC12067093, “Discovery and optimisation of a covalent ligand for TRIM25 and its application to targeted protein ubiquitination” (Chemical Science, 2025):

What was measured:
[1] = biological target: T1, BRD4 (ubiquitination by TRIM25) (Homo sapiens, UniProt O60885+Q14258); assay: In vitro targeted protein ubiquitination time course assay for BRD4; format: biochemical; conditions: TRIM25 4 μM pre-labelled with compound 50 μM, 20 h, 4 °C, excess removed (HB1a 4 μM added directly); 60 min at 30 °C
T1 construct: Recombinant full-length BRD4 (short isoform); Full-length TRIM25 (4 μM) was pre-labelled with either DMSO or compound HB1, HB2 or HB3; made in house; host or cells: Sf9 insect cells (full-length TRIM25); UBA1 and UBCH5B were made as previously described
T1 sequence (Q14258 whole entry, other chains not shown, canonical isoform): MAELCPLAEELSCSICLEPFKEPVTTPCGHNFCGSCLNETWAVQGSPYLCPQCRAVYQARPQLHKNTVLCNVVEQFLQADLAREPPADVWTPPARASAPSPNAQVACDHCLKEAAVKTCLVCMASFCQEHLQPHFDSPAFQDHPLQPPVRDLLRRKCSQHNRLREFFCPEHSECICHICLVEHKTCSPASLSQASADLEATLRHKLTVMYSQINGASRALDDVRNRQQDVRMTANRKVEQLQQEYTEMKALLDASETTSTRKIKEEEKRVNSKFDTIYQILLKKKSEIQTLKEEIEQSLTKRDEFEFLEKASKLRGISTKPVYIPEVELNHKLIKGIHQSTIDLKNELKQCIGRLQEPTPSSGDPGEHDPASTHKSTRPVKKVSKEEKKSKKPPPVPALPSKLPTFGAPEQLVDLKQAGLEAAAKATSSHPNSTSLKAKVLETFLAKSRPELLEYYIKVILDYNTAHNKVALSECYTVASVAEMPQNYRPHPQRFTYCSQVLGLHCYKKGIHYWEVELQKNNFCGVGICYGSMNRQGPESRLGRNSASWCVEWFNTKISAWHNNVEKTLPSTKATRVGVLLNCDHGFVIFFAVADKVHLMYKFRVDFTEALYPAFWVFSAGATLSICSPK
Description: 1 containing 500 mM DTT (ThermoFisher Scientific, R0861). Timepoint at 0 min
2 indicates the sample taken prior to the addition of ATP. Samples were analysed by
3 SDS-PAGE and imaged by Coomassie staining, and using the Odyssey CLx Infrared
4 Imaging System (Li-Cor).
6 For targeted protein ubiquitination assays with compounds HB1 – HB3, His10-TRIM25
8 DMSO) or compound HB1, HB2 or HB3 (50 µM, 1% DMSO) in buffer 50 mM HEPES
9 pH 7.5, 150 mM NaCl, 0.5 mM TCEP for 20 h at 4 °C. Protein-compound complexes
11 capture buffer 50 mM Tris pH 7.5, 150 mM NaCl, 5 mM MgCl2, 20 mM imidazole, 0.5
12 mM TCEP, 0.5% IGEPAL for 2 h at 4 °C, with rotation. Beads were washed once with
13 capture buffer to remove excess unreacted compound. Ubiquitination assay reaction
14 mixture comprised components as described above, with the addition of 4 µM BRD4
15 substrate. For reaction with control compound HB1a (JQ1-2PEG), 4 µM HB1a was
16 added directly to the ubiquitination assay reaction mixture. Samples were analysed as
17 described above, and by western blotting against BRD4 (Abcam, ab128874, 1:1000),
18 which was detected by anti-rabbit-HRP secondary antibody (Dako, P0399, 1:2000).
19 Blots were developed in Amersham ECL Western Blotting Detection Reagent (Cytiva,
20 RPN2106), imaged on a ChemiDoc MP Imaging System (Bio-Rad), and bands were
21 analysed in ImageLab (Bio-Rad). […]

TRIM25 PRYSPRY = biological target: T2, TRIM25 PRYSPRY (Homo sapiens, UniProt Q14258); assay: Intact protein LCMS covalent labelling of recombinant TRIM25 PRYSPRY; format: binding; conditions: TRIM25 PRYSPRY 10 μM, 4 °C; for TRIM25 PRYSPRY labelling (%): purified compound 50 μM, 24 h; for TRIM25 PRYSPRY labelling: heterobifunctional compound 50 μM, 20 hours
T2 construct: His6-TEV (cleaved yes); made in house; host or cells: Sf9 insect cells (baculovirus)
T2 sequence (Q14258 435-630): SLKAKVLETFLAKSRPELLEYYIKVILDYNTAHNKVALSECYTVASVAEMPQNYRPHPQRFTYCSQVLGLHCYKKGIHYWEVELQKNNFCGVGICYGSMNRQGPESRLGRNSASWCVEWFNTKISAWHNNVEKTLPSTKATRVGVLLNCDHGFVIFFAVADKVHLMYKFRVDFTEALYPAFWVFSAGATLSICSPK
Description: 1 resin (ThermoFisher Scientific, 89964), eluted in 100 mM HEPES pH 7, 500 mM NaCl,
2 300 mM Imidazole, 5% glycerol, 1 mM TCEP, and stored at -80 °C.
5 into a pET49 vector with a His6-HRV-3C (Human Rhinovirus) tag and expressed in
6 BL21 E.coli cells (Agilent Technologies; 230132), with induction at 18 °C overnight by
7 addition of isopropyl β-D-1-thiogalactopyranoside (0.5 mM). Cells were harvested by
8 centrifugation at 4000 rpm in a Beckman J6-M1 rotor for 30 min at 4 °C, the
9 supernatant was discarded and cell pellets were either immediately lysed, or stored at
10 -80°C. The protein was purified via His6-capture on HisPurTM Ni-NTA resin in buffer
11 50 mM HEPES pH 7.5, 300 mM NaCl, 0.5 mM TCEP, 20 mM imidazole, washed
12 extensively with both high salt buffer (50 mM HEPES pH 7.5, 1 M NaCl, 0.5 mM TCEP,
13 20 mM imidazole) and wash buffer (50 mM HEPES pH 7.5, 300 mM NaCl, 0.5 mM
14 TCEP, 20 mM imidazole) before elution in buffer 50 mM HEPES pH 7.5, 300 mM NaCl,
15 0.5 mM TCEP, 500 mM imidazole, and tag cleavage with HRV-3C protease. Cleaved
16 protein was further purified by ion exchange chromatography and size exclusion
17 chromatography into 20 mM HEPES pH 7.5, 150 mM NaCl, 0.5 mM TCEP, and stored
21 For the original chloroacetamide fragment screen, 0.25 μM TRIM25 PRYSPRY or
23 25 mM HEPES pH 7.5, 50 mM NaCl buffer. For intact protein liquid chromatography
24 mass spectrometry (LCMS) kinetic characterisation, 0.5 μM TRIM25 PRYSPRY was
25 used. For selectivity testing with recombinant ubiquitin system protein panel, 10 µM
27 7.5, 50 mM NaCl buffer. Samples were then diluted to 0.5 µM for TRIM25 PRYSPRY,
28 TRIM21 PRYSPRY, OTUD7B OTU, ZRANB1 OTU or 1 µM for TRIM2 NHL, UBCH5B,
29 UBC13K92A, UEV1A, OTUD4 OTU, before injection into the LCMS. For TRIM25
30 PRYSPRY mutants, and for labelling of heterobifunctional compounds, 10 µM protein
32 mM NaCl buffer, and samples were diluted to 1 µM protein before injection into the […]

| TRIM25 PRYSPRY labelling (%) (TRIM25 PRYSPRY) | TRIM25 PRYSPRY labelling (TRIM25 PRYSPRY) [%] | Compound | targeted ubiquitination of BRD4 by TRIM25 [1] |
| --- | --- | --- | --- |
| 94 |  | Cc1cc(C(=O)N2CCCN(C(=O)CCl)CC2)ccc1-c1ccccc1 [Compound 10] | no targeted ubiquitination of BRD4 was observed |
| 96 |  | CC1Cc2ccccc2N1C(=O)C1CCCN(C(=O)CCl)C1 (stereo not drawn) [Compound 11] |  |
|  | 49 | Cc1cc(C(=O)N2CCCN(C(=O)CCl)CC2)ccc1-c1cccc(C(=O)NCCOCCOCCNC(=O)C[C@@H]2N=C(c3ccc(Cl)cc3)c3c(sc(C)c3C)-n3c(C)nnc32)c1 [HB1] | heterobifunctional compound-induced ubiquitination of BRD4 |
|  | 75 | Cc1cc(C(=O)N2CCCN(C(=O)CCl)CC2)ccc1-c1cccc(C(=O)NCCOCCOCCOCCNC(=O)C[C@@H]2N=C(c3ccc(Cl)cc3)c3c(sc(C)c3C)-n3c(C)nnc32)c1 [HB2] | heterobifunctional compound-induced ubiquitination of BRD4 |
|  | 87 | Cc1cc(C(=O)N2CCCN(C(=O)CCl)CC2)ccc1-c1cccc(C(=O)NCCOCCOCCOCCOCCNC(=O)C[C@@H]2N=C(c3ccc(Cl)cc3)c3c(sc(C)c3C)-n3c(C)nnc32)c1 [HB3] | heterobifunctional compound-induced ubiquitination of BRD4 |
